Columns and labels:
Type in all cases: functional
Pseudomonas aeruginosa [1] = experiment: Potentiation of ceftazidime-induced antibacterial activity against carbapenem-resistant Pseudomonas aeruginosa 101885 clinical isolate assessed as ceftazidime MIC at 8.7 uM by checkerboard assay (reference value: 8 ug/ml)
Pseudomonas aeruginosa [2] = experiment: Potentiation of ceftazidime-induced antibacterial activity against carbapenem and colistin-resistant Pseudomonas aeruginosa 91433 clinical isolate assessed as ceftazidime MIC at 8.7 uM by checkerboard assay (reference value: 4 ug/ml)
Pseudomonas aeruginosa [3] = experiment: Potentiation of ceftazidime-induced antibacterial activity against carbapenem-resistant Pseudomonas aeruginosa 86052 clinical isolate assessed as ceftazidime MIC at 8.7 uM by checkerboard assay (reference value: 64 ug/ml)
Pseudomonas aeruginosa [4] = experiment: Potentiation of aztreonam-induced antibacterial activity against carbapenem and colistin-resistant Pseudomonas aeruginosa 101243 clinical isolate assessed as aztreonam MIC at 8.7 uM by checkerboard assay (reference value: 32 ug/ml)
Pseudomonas aeruginosa [5] = experiment: Potentiation of aztreonam-induced antibacterial activity against carbapenem-resistant Pseudomonas aeruginosa 264-104354 clinical isolate assessed as aztreonam MIC at 8.7 uM by checkerboard assay (reference value: 32 ug/ml)
Pseudomonas aeruginosa [6] = experiment: Potentiation of ceftazidime-induced antibacterial activity against carbapenem-resistant Pseudomonas aeruginosa PAO750 harboring mexAB-oprM/mexCD-oprJ/mexEF-oprN/mexJK/mexXY/opmH efflux deficient mutant assessed as ceftazidime MIC at 8.7 uM by checkerboard assay (reference value: 0.5 ug/ml)
Pseudomonas aeruginosa [7] = experiment: Potentiation of ceftazidime-induced antibacterial activity against carbapenem and colistin-resistant Pseudomonas aeruginosa 101243 clinical isolate assessed as ceftazidime MIC at 8.7 uM by checkerboard assay (reference value: 64 ug/ml)
Pseudomonas aeruginosa [8] = experiment: Potentiation of ceftazidime-induced antibacterial activity against wild-type Pseudomonas aeruginosa PAO1 assessed as ceftazidime MIC at 8.7 uM by checkerboard assay (reference value: 2 ug/ml)
Pseudomonas aeruginosa [9] = experiment: Potentiation of aztreonam-induced antibacterial activity against carbapenem-resistant Pseudomonas aeruginosa 86052 clinical isolate assessed as aztreonam MIC at 8.7 uM by checkerboard assay (reference value: 64 ug/ml)
Pseudomonas aeruginosa [10] = experiment: Potentiation of ceftazidime-induced antibacterial activity against carbapenem-resistant Pseudomonas aeruginosa PAO200 harboring and mexAB-oprM efflux deficient mutant assessed as ceftazidime MIC at 8.7 uM by checkerboard assay (reference value: 1 ug/ml)
Pseudomonas aeruginosa [11] = experiment: Potentiation of aztreonam-induced antibacterial activity against carbapenem-resistant Pseudomonas aeruginosa 100036 clinical isolate assessed as aztreonam MIC at 8.7 uM by checkerboard assay (reference value: 16 ug/ml)
Pseudomonas aeruginosa [12] = experiment: Potentiation of aztreonam-induced antibacterial activity against wild-type Pseudomonas aeruginosa PAO1 assessed as aztreonam MIC at 8.7 uM by checkerboard assay (reference value: 4 ug/ml)

NC[C@H]1O[C@H](O[C@H]2[C@H](OCCCCCCCCN3CCCNCCNCCCNCC3)[C@@H](O[C@H]3O[C@H](CO)[C@@H](O)[C@H](N)[C@H]3O)[C@H](N)C[C@@H]2N)[C@H](N)C[C@@H]1O.O=C(O)C(F)(F)F.O=C(O)C(F)(F)F.O=C(O)C(F)(F)F.O=C(O)C(F)(F)F.O=C(O)C(F)(F)F.O=C(O)C(F)(F)F.O=C(O)C(F)(F)F.O=C(O)C(F)(F)F.O=C(O)C(F)(F)F
MIC (Pseudomonas aeruginosa [1]): 1 µg/mL
MIC (Pseudomonas aeruginosa [2]): 2 µg/mL
MIC (Pseudomonas aeruginosa [3]): 64 µg/mL
MIC (Pseudomonas aeruginosa [4]): 8 µg/mL
MIC (Pseudomonas aeruginosa [5]): 8 µg/mL
MIC (Pseudomonas aeruginosa [6]): 0.06 µg/mL
MIC (Pseudomonas aeruginosa [7]): 8 µg/mL
MIC (Pseudomonas aeruginosa [8]): 0.25 µg/mL
MIC (Pseudomonas aeruginosa [9]): 16 µg/mL
MIC (Pseudomonas aeruginosa [10]): 0.06 µg/mL
MIC (Pseudomonas aeruginosa [11]): 2 µg/mL
MIC (Pseudomonas aeruginosa [12]): 0.25 µg/mL

— ChEMBL document CHEMBL4665836, “Overcoming β-Lactam resistance in Pseudomonas aeruginosa using non-canonical tobramycin-based antibiotic adjuvants” (2020)
